Laboratory results taken from patent US20250302832A1, “PYRAZINE DERIVATIVES AND USES THEREOF” (FOGHORN THERAPEUTICS INC., priority 2022, published 2025).

How the values were obtained:
HiBit-BRM fusion protein = biological target: T1, HiBit-BRM fusion protein (Homo sapiens, UniProt P51531); experiment: HiBiT-BRM cell-based degradation assay (Nano-Glo HiBiT lytic detection, 24 h); settings: HeLa cell line expressing HiBiT-BRM; for DC50: read-out: BRM HiBit Degradation IC50
T1 construct: expressed in transfected cells
Protocol: (§1) Procedure: A stable HeLa cell line expressing HiBiT-BRM was generated. On day 0, 5000 cells were seeded in 40 μL of media into each well of 384-well cell culture plates. On day 1, cells were treated with 120 nL DMSO or 120 nL of 3-fold serially DMSO-diluted compounds (10 points in duplicate with 30 μM as final top dose). Subsequently plates were incubated for 24 h in a standard tissue culture incubator and equilibrated at room temperature for 15 minutes. Nano-GB HiBiT Lytic Detection System (Promega N3050) reagent was freshly prepared and 20 ul was added to each well. Upon addition of this LgBit-containing reagent, the HiBiT and LgBiT proteins associate to form the luminescent NanoBiT luciferase. The plates were shaken for 10 minutes at room temperature and the bioluminescence read using an EnVision plate reader (PerkinElmer).
(§2) The degradation % was calculated using the following formula: % degradation=100%−100%×(Lumsample−LuMLC)/(LuMHC−LuMLC). DMSO treated cells are employed as High Control (HC) and 2 μM of a known BRM/BRG1 degrader standard treated cells are employed as Low Control (LC).

[1] = biological target: T2, HiBit-BRG1 fusion protein (Homo sapiens, UniProt P51532); experiment: HiBiT-BRG1 cell-based degradation assay (Nano-Glo HiBiT lytic detection, 24 h); settings: HeLa cell line expressing HiBit-BRG1 and LgBit; for Dmax: read-out: BRG1 HiBit Degradation Maximum (%); for DC50: read-out: BRMG1 HiBit Degradation IC50
T2 construct: expressed in transfected cells
Protocol: as §1, with “On day 1, cells were treated with 120 nL DMSO or 120 nL of 3-fold serially DMSO-diluted compounds (10 points in duplicate with 30 μM as final top dose).” left out
For measurement of BRG1 degradation, a stable HeLa cell line expressing HiBit-BRG1 and LgBit was generated. The same protocol as above was then followed.
as §2

T1 sequence (P51531 whole entry, the tested form may be a part): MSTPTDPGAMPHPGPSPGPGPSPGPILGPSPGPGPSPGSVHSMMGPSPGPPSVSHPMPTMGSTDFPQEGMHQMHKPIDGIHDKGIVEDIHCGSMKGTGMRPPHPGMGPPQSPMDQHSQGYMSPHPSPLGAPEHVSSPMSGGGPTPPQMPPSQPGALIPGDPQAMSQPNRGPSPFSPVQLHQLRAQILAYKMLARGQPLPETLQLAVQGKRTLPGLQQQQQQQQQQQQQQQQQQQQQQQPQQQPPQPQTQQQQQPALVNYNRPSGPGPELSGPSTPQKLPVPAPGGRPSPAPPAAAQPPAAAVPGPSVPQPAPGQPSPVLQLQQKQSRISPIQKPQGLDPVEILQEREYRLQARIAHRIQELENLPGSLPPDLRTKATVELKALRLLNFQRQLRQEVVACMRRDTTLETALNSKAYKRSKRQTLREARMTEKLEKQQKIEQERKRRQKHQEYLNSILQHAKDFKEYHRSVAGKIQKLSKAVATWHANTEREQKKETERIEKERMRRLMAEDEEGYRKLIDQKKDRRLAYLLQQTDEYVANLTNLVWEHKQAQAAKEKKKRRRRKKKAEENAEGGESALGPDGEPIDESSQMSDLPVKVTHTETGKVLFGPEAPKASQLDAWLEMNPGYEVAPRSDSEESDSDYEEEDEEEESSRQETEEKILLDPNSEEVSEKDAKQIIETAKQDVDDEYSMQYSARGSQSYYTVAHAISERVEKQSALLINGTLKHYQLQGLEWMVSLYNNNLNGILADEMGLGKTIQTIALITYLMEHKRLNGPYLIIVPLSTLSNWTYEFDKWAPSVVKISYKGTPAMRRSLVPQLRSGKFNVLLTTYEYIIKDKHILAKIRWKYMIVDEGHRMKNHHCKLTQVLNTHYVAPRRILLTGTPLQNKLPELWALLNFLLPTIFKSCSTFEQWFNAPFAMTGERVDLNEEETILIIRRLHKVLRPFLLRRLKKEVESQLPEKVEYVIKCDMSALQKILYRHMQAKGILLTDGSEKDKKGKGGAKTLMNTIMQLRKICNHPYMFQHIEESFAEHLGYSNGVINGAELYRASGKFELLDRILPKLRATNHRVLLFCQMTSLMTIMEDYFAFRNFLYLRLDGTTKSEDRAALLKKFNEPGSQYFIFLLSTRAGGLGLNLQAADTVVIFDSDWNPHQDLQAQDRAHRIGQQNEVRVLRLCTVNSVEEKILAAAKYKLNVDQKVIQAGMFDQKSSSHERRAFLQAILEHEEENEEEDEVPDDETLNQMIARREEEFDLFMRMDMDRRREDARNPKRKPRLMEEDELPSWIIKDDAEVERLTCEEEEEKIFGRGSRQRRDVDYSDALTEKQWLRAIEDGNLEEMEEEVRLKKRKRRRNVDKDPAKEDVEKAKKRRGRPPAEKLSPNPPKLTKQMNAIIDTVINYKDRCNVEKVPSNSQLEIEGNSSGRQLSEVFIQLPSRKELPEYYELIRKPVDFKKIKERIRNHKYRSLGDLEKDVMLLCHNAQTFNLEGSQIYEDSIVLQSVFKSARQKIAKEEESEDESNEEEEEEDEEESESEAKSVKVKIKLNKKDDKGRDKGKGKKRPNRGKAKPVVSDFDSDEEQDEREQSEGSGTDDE
T2 sequence (P51532 whole entry, the tested form may be a part): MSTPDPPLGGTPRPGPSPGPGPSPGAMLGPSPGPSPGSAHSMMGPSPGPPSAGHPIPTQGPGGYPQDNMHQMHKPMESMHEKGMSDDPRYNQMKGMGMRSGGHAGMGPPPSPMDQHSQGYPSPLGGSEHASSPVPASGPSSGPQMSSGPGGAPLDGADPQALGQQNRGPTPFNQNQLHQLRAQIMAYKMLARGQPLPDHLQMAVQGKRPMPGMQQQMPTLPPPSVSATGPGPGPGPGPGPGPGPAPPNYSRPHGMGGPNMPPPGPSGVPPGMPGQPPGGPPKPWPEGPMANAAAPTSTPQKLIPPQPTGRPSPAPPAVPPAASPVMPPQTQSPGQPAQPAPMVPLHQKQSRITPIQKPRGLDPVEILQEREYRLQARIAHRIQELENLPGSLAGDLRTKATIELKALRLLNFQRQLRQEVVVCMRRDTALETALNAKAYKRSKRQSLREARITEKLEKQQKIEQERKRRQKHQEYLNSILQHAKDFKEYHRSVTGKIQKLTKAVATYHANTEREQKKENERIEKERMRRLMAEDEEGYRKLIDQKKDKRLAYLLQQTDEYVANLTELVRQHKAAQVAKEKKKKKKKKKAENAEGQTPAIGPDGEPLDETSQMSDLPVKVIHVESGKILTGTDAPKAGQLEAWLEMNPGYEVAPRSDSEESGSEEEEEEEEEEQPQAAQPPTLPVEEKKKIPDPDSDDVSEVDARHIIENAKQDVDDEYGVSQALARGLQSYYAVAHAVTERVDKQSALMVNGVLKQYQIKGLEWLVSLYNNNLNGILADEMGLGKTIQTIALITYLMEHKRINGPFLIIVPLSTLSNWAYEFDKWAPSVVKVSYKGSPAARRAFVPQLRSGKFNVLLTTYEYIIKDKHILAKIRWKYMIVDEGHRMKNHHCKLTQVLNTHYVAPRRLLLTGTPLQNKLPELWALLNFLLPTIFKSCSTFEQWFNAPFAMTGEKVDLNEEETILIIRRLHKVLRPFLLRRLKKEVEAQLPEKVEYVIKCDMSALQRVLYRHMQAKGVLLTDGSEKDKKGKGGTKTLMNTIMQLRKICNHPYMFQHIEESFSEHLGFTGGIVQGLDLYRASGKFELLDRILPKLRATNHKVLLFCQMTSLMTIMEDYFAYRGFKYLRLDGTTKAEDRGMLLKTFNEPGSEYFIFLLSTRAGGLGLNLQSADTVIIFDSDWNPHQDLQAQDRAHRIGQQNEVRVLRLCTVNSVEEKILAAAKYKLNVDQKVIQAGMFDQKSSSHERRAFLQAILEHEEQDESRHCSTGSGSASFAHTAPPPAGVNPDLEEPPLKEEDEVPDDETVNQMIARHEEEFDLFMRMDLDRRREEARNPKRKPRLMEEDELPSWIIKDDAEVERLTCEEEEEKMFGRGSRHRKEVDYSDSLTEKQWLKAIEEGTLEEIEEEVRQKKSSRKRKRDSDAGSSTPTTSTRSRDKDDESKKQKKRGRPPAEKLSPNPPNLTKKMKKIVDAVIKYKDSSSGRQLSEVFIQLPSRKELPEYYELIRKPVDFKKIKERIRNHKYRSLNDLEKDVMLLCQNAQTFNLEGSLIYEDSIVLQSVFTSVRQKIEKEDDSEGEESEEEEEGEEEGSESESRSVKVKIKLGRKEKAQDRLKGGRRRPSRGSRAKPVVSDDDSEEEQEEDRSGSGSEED

Row | SMILES | BRM HiBit Degradation Maximum (%) (HiBit-BRM fusion protein) | DC50 (HiBit-BRM fusion protein) [nM] | Dmax [1] [%] | DC50 [1] [nM]
1 | Cc1ncsc1-c1ccc([C@H](C)NC(=O)[C@@H]2C[C@@H](O)CN2C(=O)[C@@H](c2cc(N3CC[C@@H](c4cc5nnc(-c6ccccc6O)cc5n4C4CCC4)C3)no2)C(C)C)cc1 [Compound 88, (2S,4R)-1-((R)-2-(3-((R)-3-(5-cyclobutyl-3-(2-hydroxyphenyl)-5H-pyrrolo[3,2-c]pyridazin-6-yl)pyrrolidin-1-yl)isoxazol-5-yl)-3-methylbutanoyl)-4-hydroxy-N-((S)-1-(4-(4-methylthiazol-5-yl)phenyl)ethyl)pyrrolidine-2-carboxamide] | A (“A” indicates maximum degradation ≥75%) | < 10 | > 75 | > 10
2 | Cc1ncsc1-c1ccc([C@H](C)NC(=O)[C@@H]2C[C@@H](O)CN2C(=O)[C@@H](c2cc(-c3cnc(N4CC[C@H](c5cc6nnc(-c7ccccc7O)cc6n5C5(C)CC5)C4)nc3)no2)C(C)C)cc1 [Compound 104, (2S,4R)-4-hydroxy-1-((R)-2-(3-(2-((S)-3-(3-(2-hydroxyphenyl)-5-(1-methylcyclopropyl)-5H-pyrrolo[3,2-c]pyridazin-6-yl)pyrrolidin-1-yl)pyrimidin-5-yl)isoxazol-5-yl)-3-methylbutanoyl)-N-((S)-1-(4-(4-methylthiazol-5-yl)phenyl)ethyl)pyrrolidine-2-carboxamide] | A (“A” indicates maximum degradation ≥75%) | < 10 | > 75 | < 10
3 | Cc1ncsc1-c1ccc([C@H](C)NC(=O)[C@@H]2C[C@@H](O)CN2C(=O)[C@@H](c2cc(-c3cnc(N4CC[C@H](c5cc6nnc(-c7ccccc7O)cc6n5C5CCC5)C4)nc3)no2)C(C)C)cc1 [Compound 112, (2S,4R)-1-((R)-2-(3-(2-((S)-3-(5-cyclobutyl-3-(2-hydroxyphenyl)-5H-pyrrolo[3,2-c]pyridazin-6-yl)pyrrolidin-1-yl)pyrimidin-5-yl)isoxazol-5-yl)-3-methylbutanoyl)-4-hydroxy-N-((S)-1-(4-(4-methylthiazol-5-yl)phenyl)ethyl)pyrrolidine-2-carboxamide] | A (“A” indicates maximum degradation ≥75%) | > 10 | > 50 | > 10
4 | Cc1ncsc1-c1ccc([C@H](C)NC(=O)[C@@H]2C[C@@H](O)CN2C(=O)[C@@H](c2cc(-c3cnc(N4CCN(c5cc6nnc(-c7ccccc7O)cc6n5C)CC4)nc3)no2)C(C)C)cc1 [Compound 28, (2S,4R)-4-hydroxy-1-[(2R)-2-[3-(2-{4-[3-(2-hydroxyphenyl)-5-methylpyrrolo[3,2-c]pyridazin-6-yl]piperazin-1-yl}pyrimidin-5-yl)-1,2-oxazol-5-yl]-3-methylbutanoyl]-N-[(1S)-1-[4-(4-methyl-1,3-thiazol-5-yl)phenyl]ethyl]pyrrolidine-2-carboxamide] | A (“A” indicates maximum degradation ≥75%) | < 10 | > 75 | < 10
5 | Cc1ncsc1-c1ccc([C@H](C)NC(=O)[C@@H]2C[C@@H](O)CN2C(=O)[C@H](c2cc(-c3cnc(N4CC[C@@H](c5cc6nnc(-c7ccccc7O)cc6n5C5CC5)C4)nc3)no2)C(C)C)cc1 [Compound 37, (2S,4R)-1-((S)-2-(3-(2-((R)-3-(5-cyclopropyl-3-(2-hydroxyphenyl)-5H-pyrrolo[3,2-c]pyridazin-6-yl)pyrrolidin-1-yl)pyrimidin-5-yl)isoxazol-5-yl)-3-methylbutanoyl)-4-hydroxy-N—((S)-1-(4-(4-methylthiazol-5-yl)phenyl)ethyl)pyrrolidine-2-carboxamide] | A (“A” indicates maximum degradation ≥75%) | > 10 | < 50 | –
6 | Cc1ncsc1-c1ccc([C@H](C)NC(=O)[C@@H]2C[C@@H](O)CN2C(=O)[C@@H](c2cc(-c3cnc(N4CC[C@H](c5cc6nnc(-c7ccccc7O)cc6n5CC5CC5)C4)nc3)no2)C(C)C)cc1 [Compound 115, (2S,4R)-1-((R)-2-(3-(2-((S)-3-(5-(cyclopropylmethyl)-3-(2-hydroxyphenyl)-5H-pyrrolo[3,2-c]pyridazin-6-yl)pyrrolidin-1-yl)pyrimidin-5-yl)isoxazol-5-yl)-3-methylbutanoyl)-4-hydroxy-N-((S)-1-(4-(4-methylthiazol-5-yl)phenyl)ethyl)pyrrolidine-2-carboxamide] | A (“A” indicates maximum degradation ≥75%) | < 10 | > 50 | > 10
7 | C#Cc1ccc(CNC(=O)[C@@H]2C[C@@H](O)CN2C(=O)C(c2cc(N3CC4(CC(c5cc6nnc(-c7ccccc7O)cc6n5C5CCC5)C4)C3)no2)C(C)C)c(OC)c1 (stereo partly drawn) [Compound 58, (2S,4R)-1-(2-(3-(6-(5-cyclobutyl-3-(2-hydroxyphenyl)-5H-pyrrolo[3,2-c]pyridazin-6-yl)-2-azaspiro[3.3]heptan-2-yl)isoxazol-5-yl)-3-methylbutanoyl)-N-(4-ethynyl-2-methoxybenzyl)-4-hydroxypyrrolidine-2-carboxamide] | A (“A” indicates maximum degradation ≥75%) | < 10 | < 50 | –
8 | Cc1ncsc1-c1ccc([C@H](C)NC(=O)[C@@H]2C[C@@H](O)CN2C(=O)[C@@H](c2cc(N(C)CCN3CC(c4cc5nnc(-c6ccccc6O)cc5n4C)C3)no2)C(C)C)cc1 [Compound 10, (2S,4R)-4-hydroxy-1-((R)-2-(3-((2-(3-(3-(2-hydroxyphenyl)-5-methyl-5H-pyrrolo[3,2-c]pyridazin-6-yl)azetidin-1-yl)ethyl)(methyl)amino)isoxazol-5-yl)-3-methylbutanoyl)-N-((S)-1-(4-(4-methylthiazol-5-yl)phenyl)ethyl)pyrrolidine-2-carboxamide] | A (“A” indicates maximum degradation ≥75%) | > 10 | > 50 | > 1000
9 | Cc1ncsc1-c1ccc([C@H](C)NC(=O)[C@@H]2C[C@@H](O)CN2C(=O)[C@@H](c2cc(-c3cnc(N4CC[C@H](c5cc6nnc(-c7ccccc7O)cc6n5C5CC5)C4)nc3)no2)C(C)C)cc1 [Compound 34, (2S,4R)-1-((R)-2-(3-(2-((S)-3-(5-cyclopropyl-3-(2-hydroxyphenyl)-5H-pyrrolo[3,2-c]pyridazin-6-yl)pyrrolidin-1-yl)pyrimidin-5-yl)isoxazol-5-yl)-3-methylbutanoyl)-4-hydroxy-N—((S)-1-(4-(4-methylthiazol-5-yl)phenyl)ethyl)pyrrolidine-2-carboxamide] | A (“A” indicates maximum degradation ≥75%) | < 10 | < 50 | –
10 | Cc1cc(-c2cc([C@H](C(=O)N3C[C@H](O)C[C@H]3C(=O)N[C@@H](C)c3ccc(-c4scnc4C)cc3)C(C)C)on2)cnc1N1CC[C@H](c2cc3nnc(-c4ccccc4O)cc3n2C2CC2)C1 (single isomer, unassigned) [Compound 110] | A (“A” indicates maximum degradation ≥75%) | < 10 | < 50 | –
11 | Cc1ncsc1-c1ccc([C@H](C)NC(=O)[C@@H]2C[C@@H](O)CN2C(=O)[C@@H](c2cc(-c3cnc(N4CCC(c5cc6nnc(-c7ccccc7O)cc6n5C5(C)CC5)CC4)nc3)no2)C(C)C)cc1 [Compound 43] | A (“A” indicates maximum degradation ≥75%) | < 10 | < 50 | –
12 | Cc1ncsc1-c1ccc([C@H](C)NC(=O)[C@@H]2C[C@@H](O)CN2C(=O)[C@@H](c2cc(-c3cnc(N4CCC(c5cc6nnc(-c7ccccc7O)cc6n5C5CC5)CC4)nc3)no2)C(C)C)cc1 [Compound 25, (2S,4R)-1-[(2R)-2-[3-(2-{4-[5-cyclopropyl-3-(2-hydroxyphenyl)pyrrolo[3,2-c]pyridazin-6-yl]piperidin-1-yl}pyrimidin-5-yl)-1,2-oxazol-5-yl]-3-methylbutanoyl]-4-hydroxy-N-[(1S)-1-[4-(4-methyl-1,3-thiazol-5-yl)phenyl]ethyl]pyrrolidine-2-carboxamide] | A (“A” indicates maximum degradation ≥75%) | < 10 | < 50 | –
13 | Cc1ncsc1-c1ccc([C@H](C)NC(=O)[C@@H]2C[C@@H](O)CN2C(=O)[C@@H](c2cc(OCCCN3CC(c4cc5nnc(-c6ccccc6O)cc5[nH]4)C3)no2)C(C)C)cc1 [Compound 3, (2S,4R)-4-hydroxy-1-((R)-2-(3-(3-(3-(3-(2-hydroxyphenyl)-5H-pyrrolo[3,2-c]pyridazin-6-yl)azetidin-1-yl)propoxy)isoxazol-5-yl)-3-methylbutanoyl)-N-((S)-1-(4-(4-methylthiazol-5-yl)phenyl)ethyl)pyrrolidine-2-carboxamide, formic acid] | B (“B” indicates maximum degradation ≥50%) | > 1000 | – | –
